Experimental findings from PubChem BioAssay (NCI) are described below.

Among the test systems are A549 NSCLC; CAKI-1 renal; HT29 colon; LOX IMVI melanoma; MDA-MB-435; RXF 393 renal; SF-539 CNS; SNB-75 CNS; UACC-257 melanoma; UACC-62 melanoma.
Common to all, as to experiment: NCI-60 cell line screen, 48 h

Structures are written as SMILES.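 Five compound concentrations were applied to cells in 96-well plates for 48 hours; endpoints were derived by simple linear interpolation of the resulting dose-response curve. GI50 = concentration required for 50% inhibition of growth. At the TGI there is no net growth.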 Bounds are passed on as bounds.

As for `COc1ccc2nc3cc(Cl)ccc3c(Nc3cc(CN4CCCC4)c(O)c(CN4CCCC4)c3)c2n1`, the GI50 was 1.29 µM in the test with A549 NSCLC; 2.37 µM in the test on CAKI-1 renal; 1.42 µM in the test with HT29 colon; 1.4 µM in the test on LOX IMVI melanoma; 1.6 µM with MDA-MB-435; 1.25 µM in the test with RXF 393 renal. Moreover, the GI50 is 1.89 µM in the test with SF-539 CNS, 1.38 µM in the test with SNB-75 CNS, 1.71 µM in the test on UACC-257 melanoma and 1.74 µM in the test with UACC-62 melanoma. Besides, the TGI in the test on A549 NSCLC was 22 µM; in the test on CAKI-1 renal it was 8.44 µM; with HT29 colon, 10.5 µM; in the test with LOX IMVI melanoma, 5.09 µM; in the test with MDA-MB-435, 3.07 µM; in the test on RXF 393 renal, 3.05 µM. Also, the TGI in the test on SF-539 CNS was determined as 3.88 µM; with SNB-75 CNS, 2.7 µM; with UACC-257 melanoma, 3.26 µM; in the test with UACC-62 melanoma, 3.56 µM.
Turning to `Cc1cc(O)c(-c2ccc([C@@H](C)CN(C)C)cc2)c2c1[nH]c(=O)c1sccc12`, the GI50 with A549 NSCLC is 0.647 µM; in the test on CAKI-1 renal, 1.82 µM; in the test with HT29 colon, 2.76 µM; in the test with LOX IMVI melanoma, 0.785 µM; with MDA-MB-435, 0.981 µM; with RXF 393 renal it was 0.167 µM. Moreover, the GI50 is 0.219 µM with SF-539 CNS, 0.206 µM in the test with SNB-75 CNS, 1.76 µM in the test on UACC-257 melanoma and 1.32 µM in the test on UACC-62 melanoma. Also, the TGI was 14.6 µM in the test on A549 NSCLC; 33.4 µM with CAKI-1 renal; 7.81 µM with HT29 colon; 27.5 µM in the test with LOX IMVI melanoma; 15.2 µM in the test on MDA-MB-435; 0.53 µM with RXF 393 renal. Besides, the TGI amounted to 1.97 µM in the test on SF-539 CNS, 3.02 µM in the test with SNB-75 CNS, 6.86 µM in the test with UACC-257 melanoma and 4.99 µM in the test with UACC-62 melanoma.
Turning to `O=C(/C=C/C12c3ccccc3C(c3ccccc31)C1C(=O)NC(=O)C12)c1ccccc1` (stereo not given), the GI50 in the test with A549 NSCLC is 2.65 µM; in the test on CAKI-1 renal it was 1.49 µM; in the test with HT29 colon it was 3.25 µM; in the test on LOX IMVI melanoma, 1.63 µM; with MDA-MB-435 it was 2.16 µM; with RXF 393 renal it was 1.5 µM. Besides, the GI50 was 1.63 µM with SF-539 CNS, 1.2 µM with SNB-75 CNS, 1.61 µM with UACC-257 melanoma and 1.77 µM in the test on UACC-62 melanoma. Moreover, the TGI in the test with A549 NSCLC is 11.8 µM; in the test with CAKI-1 renal it was 3.68 µM; in the test with HT29 colon, 11.9 µM; in the test with LOX IMVI melanoma, 3.12 µM; in the test with MDA-MB-435 it was 5.9 µM; in the test with RXF 393 renal, 2.94 µM. Moreover, the TGI in the test with SF-539 CNS stood at 3.02 µM; in the test with SNB-75 CNS it was 2.55 µM; in the test on UACC-257 melanoma, 3.48 µM; in the test with UACC-62 melanoma, 3.82 µM.
With `N#CC1=C(N)NC(=O)NC12Nc1ccccc1N2`, the GI50 in the test on A549 NSCLC, in the test with CAKI-1 renal, in the test with HT29 colon, in the test with LOX IMVI melanoma, in the test on MDA-MB-435 and with RXF 393 renal was greater than 100 µM each time. Moreover, the GI50 is greater than 100 µM in the test on SF-539 CNS, 45.2 µM with SNB-75 CNS, greater than 100 µM in the test with UACC-257 melanoma and greater than 100 µM in the test on UACC-62 melanoma. Further, the TGI in the test with A549 NSCLC, in the test with CAKI-1 renal, in the test on HT29 colon, in the test on LOX IMVI melanoma, in the test on MDA-MB-435 and in the test with RXF 393 renal was greater than 100 µM each time. Besides, the TGI in the test with SF-539 CNS, in the test on SNB-75 CNS, with UACC-257 melanoma and in the test on UACC-62 melanoma was greater than 100 µM in each case.
On to `O=c1[nH]c(=O)n(C2CC(O)C(CO)O2)cc1C(F)(F)F` (stereo not given), for which the GI50 in the test with A549 NSCLC was 3.35 µM; in the test on CAKI-1 renal, 1.79 µM; in the test on HT29 colon, 33.8 µM; in the test on LOX IMVI melanoma, 0.936 µM; in the test with MDA-MB-435, 5.31 µM; in the test on RXF 393 renal, 9.38 µM. For the same compound, the GI50 with SF-539 CNS is 0.456 µM; in the test on SNB-75 CNS, greater than 40.9 µM; in the test on UACC-257 melanoma, 8.61 µM; in the test with UACC-62 melanoma, 2.59 µM. The TGI in the test on A549 NSCLC, in the test on CAKI-1 renal, with HT29 colon, in the test on LOX IMVI melanoma, in the test on MDA-MB-435 and in the test with RXF 393 renal was greater than 100 µM each time. Also, the TGI in the test with SF-539 CNS is 7.21 µM; in the test with SNB-75 CNS it was greater than 100 µM; in the test with UACC-257 melanoma, greater than 100 µM; in the test on UACC-62 melanoma, greater than 91.8 µM.
With `CN(C)CCCNc1nc2ccccc2c2[nH]c3ccccc3c12`, the GI50 was 0.402 µM in the test on A549 NSCLC; 1.09 µM in the test with CAKI-1 renal; 0.163 µM with HT29 colon; 0.75 µM in the test on LOX IMVI melanoma; 1.28 µM in the test with MDA-MB-435; 1.23 µM with RXF 393 renal. For the same compound, the GI50 in the test on SF-539 CNS was 0.654 µM; in the test with SNB-75 CNS, 1.16 µM; in the test on UACC-257 melanoma it was 3.48 µM; in the test with UACC-62 melanoma, 4.01 µM. In addition, the TGI in the test with A549 NSCLC was found to be 8.18 µM; in the test on CAKI-1 renal it was 3.01 µM; in the test with HT29 colon it was 33 µM; in the test on LOX IMVI melanoma it was 1.64 µM; in the test on MDA-MB-435, 3.89 µM; in the test with RXF 393 renal, 3.55 µM. Also, the TGI worked out at 1.9 µM in the test on SF-539 CNS, 3.78 µM in the test with SNB-75 CNS, 14.7 µM in the test on UACC-257 melanoma and 11.9 µM with UACC-62 melanoma.
Take `CO/N=C(\COc1ccc2oc(-c3ccccc3)cc(=O)c2c1)c1ccc(F)cc1`: the GI50 in the test on A549 NSCLC is 20 µM; in the test on CAKI-1 renal it was greater than 100 µM; with HT29 colon, 31.4 µM; with LOX IMVI melanoma, 25.2 µM; in the test on MDA-MB-435, greater than 100 µM; with RXF 393 renal it was 15.8 µM. For the same compound, the GI50 was 20.9 µM in the test on SF-539 CNS, 17.4 µM in the test with SNB-75 CNS, 20.8 µM in the test with UACC-257 melanoma and 21.9 µM in the test with UACC-62 melanoma. For the same compound, the TGI in the test on A549 NSCLC is 48.7 µM; with CAKI-1 renal, greater than 100 µM; in the test on HT29 colon it was greater than 100 µM; with LOX IMVI melanoma, 77.9 µM; in the test on MDA-MB-435, greater than 100 µM; with RXF 393 renal, 44.7 µM. For the same compound, the TGI in the test on SF-539 CNS came out at 42.9 µM; in the test with SNB-75 CNS, 40.6 µM; in the test on UACC-257 melanoma, 46.7 µM; in the test on UACC-62 melanoma, 86.5 µM.
`C[C@@H]1CC[C@@]2(NC1)O[C@H]1C[C@H]3[C@@H]4CC[C@H]5C[C@@H](O)CC[C@]5(C)[C@H]4CC[C@]3(C)[C@H]1[C@@H]2C`: the TGI with A549 NSCLC, with CAKI-1 renal, with HT29 colon, with LOX IMVI melanoma, in the test on MDA-MB-435 and in the test with RXF 393 renal was greater than 100 µM each time. Besides, the TGI in the test with SF-539 CNS was 77.6 µM; in the test with SNB-75 CNS, greater than 100 µM; in the test on UACC-257 melanoma, greater than 100 µM; in the test with UACC-62 melanoma it was greater than 100 µM.
Take `COc1ccc2[nH]c(C(=O)OCc3ccc4c(Cl)cc(Cl)c(O)c4n3)cc2c1`: the GI50 was 1.67 µM in the test on A549 NSCLC; 0.768 µM in the test with CAKI-1 renal; 0.778 µM in the test on HT29 colon; 0.907 µM in the test on LOX IMVI melanoma; 1.13 µM in the test on MDA-MB-435; 0.407 µM in the test with RXF 393 renal. The GI50 in the test on SF-539 CNS was 1.25 µM; in the test on SNB-75 CNS, 0.251 µM; in the test with UACC-257 melanoma it was 1.64 µM; in the test with UACC-62 melanoma it was 1.33 µM. Further, the TGI is 3.4 µM in the test with A549 NSCLC; 2.13 µM in the test on CAKI-1 renal; 2.32 µM with HT29 colon; 2.22 µM in the test with LOX IMVI melanoma; 2.45 µM in the test on MDA-MB-435; 1.76 µM with RXF 393 renal. Moreover, the TGI amounted to 2.5 µM in the test on SF-539 CNS, 1.78 µM with SNB-75 CNS, 4.23 µM in the test on UACC-257 melanoma and 2.61 µM with UACC-62 melanoma.
For `CCn1c(-c2nonc2N)nc2c(N3CCCC3)nccc21`, the GI50 in the test with A549 NSCLC is 13.2 µM; with CAKI-1 renal, 13.4 µM; with HT29 colon it was 7.97 µM; with LOX IMVI melanoma, 8.91 µM; in the test on MDA-MB-435, 12.2 µM; with RXF 393 renal it was 9.63 µM. Besides, the GI50 was 10.8 µM in the test with SF-539 CNS, 10.3 µM in the test with SNB-75 CNS, greater than 22.4 µM with UACC-257 melanoma and 16.2 µM in the test on UACC-62 melanoma. For the same compound, the TGI with A549 NSCLC, with CAKI-1 renal, with HT29 colon, in the test on LOX IMVI melanoma, in the test with MDA-MB-435 and with RXF 393 renal was greater than 25 µM throughout. Further, the TGI in the test with SF-539 CNS, in the test with SNB-75 CNS, in the test on UACC-257 melanoma and in the test on UACC-62 melanoma was greater than 25 µM in each case.
For `C[C@]12C[C@H](O)[C@H]3[C@@H](CCC4=CC(=O)CC[C@@]43C)[C@@H]1CC[C@@H]2c1csc(-c2ccccc2)n1`, the TGI in the test with A549 NSCLC, in the test with CAKI-1 renal, with HT29 colon, in the test with LOX IMVI melanoma, in the test on MDA-MB-435 and with RXF 393 renal was greater than 100 µM each time. The TGI with SF-539 CNS was greater than 100 µM; with SNB-75 CNS it was greater than 82.7 µM; with UACC-257 melanoma, greater than 100 µM; in the test on UACC-62 melanoma, greater than 100 µM.
Take `O=C[C@@H](CO)O[C@H](C=O)n1cnc2c(=O)[nH]cnc21`: the TGI in the test with A549 NSCLC came to 2460 µM; with CAKI-1 renal, 1590 µM; with HT29 colon, 1910 µM; in the test on LOX IMVI melanoma, 534 µM; in the test on MDA-MB-435, 2300 µM; with RXF 393 renal, 1470 µM. Further, the TGI with SF-539 CNS stood at 2230 µM; with SNB-75 CNS, 2270 µM; in the test with UACC-257 melanoma, 1670 µM; with UACC-62 melanoma, 1670 µM.
